Legend:
[1] = Dog PK study #4 (Compound A PO daily 14 days, 1/3/10 mg/kg; toxicokinetics, platelet counts); assay type: in vivo, beagle dogs; settings: for Mean Platelet Count: Day 15 following 14 days of administration; for concentration at 0.5 h / concentration at 1 h / concentration at 2 h / concentration at 4 h / concentration at 8 h / concentration at 24 h: beagle, dog, plasma, oral, after daily administration for 14 days
Description: The different doses of compound A were orally administered to animals (n=2/group, one male and one female animal) daily for 14 days.
Blood samples were collected at 0.5, 1, 2, 4, 8, and 24 hours after administration of Compound A on Day 14, and EDTA-K2 was used as an anticoagulant. Within 30 minutes of collection, the samples were centrifuged at approximately 2000×g for 10 minutes at 4° C. to obtain blood plasma. The samples were immediately divided into aliquots, transferred to cryogenic vials, and stored in a freezer at −75+15° C. prior to analysis.
The concentration of Compound A in the blood plasma was determined through liquid chromatography-mass spectrometry (LC-MS). The experiments were conducted on a Shimadzu UPLC and AB API 6500+LC/MS/MS with a Water […] UPLC HSS T3 1.8 μm (50×2.1 mm) column. A gradient of 0.1% formic acid in water/0.1% formic acid in acetonitrile was used as the mobile phase. The sample injection volume was 1 μL. The flow rate was 0.6 mL/min.
The desired serial concentrations of working solutions were achieved by diluting 30 μL of sample (control standard, QC standard, test samples) with 30 μL of a 50% acetonitrile in water solution (for double blanks) or 30 μL of the IS mixture (Compound B 80 ng/ml in 50% acetonitrile). 240 μL of 100% acetonitrile was then added and samples were vortexed for 5 min and centrifuged at 3200×g at 4° C. for 10 min. 100 μL of the supernatant was transferred and then diluted with 50% acetonitrile. Samples were then vortexed for about 5 min before injection into the LC/MS/MS system for quantitative analysis.

[2] = UUO study: clinical observations; assay type: in vivo; settings: UUO rats; 10 mg/kg
lupus = assay: SLE (lupus) model: kidney and spleen weight; assay type: in vivo, MRL/MpJ-Faslpr mice; settings: Week 19
Description: Female MRL/MpJ-Faslpr mice (The Jackson Laboratory) were used to assess the efficacy of Compound A in treating lupus. Starting when animals were 10 weeks of age, protein concentration in urine was measured using urine dipsticks.
At the start of the study, each group in the study had two animals that were 9 weeks old, and all others were 10 weeks old. Dosing of all animals with the test compounds began when the older animals were 11 weeks old. […] […] Dosing was at a consistent time each dosing day throughout the study.
Compound A may be formulated as illustrated in Experimental Method A (see Table 2E.). […] A stock solution of Compound A in DMSO (stock solution concentration of Compound A of 40 mg/mL) was prepared and aliquots for weekly preparations were frozen at −20° C. On each preparation day, a stock solution aliquot was thawed and diluted with other vehicle components to the desired concentration. Formulated Compound A and vehicle were at room temperature for dosing.
The study began when the older animals were 11 weeks old, and concluded when the older animals were 19 weeks old. Body weight was recorded once a week, with the exception of two weight measurements taken the first week of the study (when the older animals were 11 weeks old). Proteinuria was measured in the urine of animals with urine dipsticks once a week, starting when the older animals were 10 weeks old. […] Blood samples were taken retro-orbitally at the start of the study to establish a baseline (15 animals, 3 per group), and when the older animals were 16 weeks (all animals) and when animals were 19 weeks (all animals) at the conclusion of the study. Blood urea nitrogen (BUN) was measured in all animals at study termination in blood samples. After blood collection, animals were euthanized, perfused with PBS, and the left kidneys were collected and weighed and fixed in 10% buffered formalin. Left kidneys were then processed to a formalin-fixed, paraffin-embedded (FFPE) block, and histology was analyzed in Periodic Acid-Schiff-stained sections (1 section per slide), using the criteria described in Alperovich et al., Lupus, 16:18-24 (2007). Right kidneys were weighed and snap-frozen at −80° C. Spleens were also collected and weighed. SLE in animals treated with a BET inhibitor and vehicle.

[3] = both sexes, 1 mg/kg, Pooled Mean
[4] = both sexes, 3 mg/kg, Pooled Mean
[5] = both sexes, 10 mg/kg, Pooled Mean

Structure (SMILES): Cn1cc(-c2ccccc2)c(-c2cn(C)c(=O)c3[nH]c(-c4cnn(C(F)(F)F)c4)cc23)cc1=O [Compound A, 6-methyl-4-(1-methyl-2-oxo-5-phenyl-1,2-dihydropyridin-4-yl)-2-(1-(trifluoromethyl)-1H-pyrazol-4-yl)-1,6-dihydro-7H-pyrrolo[2,3-c]pyridin-7-one]
- exposure difference between male and female animals ([1]; Day 14): no exposure differences
- plasma concentration relative to BD2 BRD4 and BD1 BRD4 free EC50 ([1]; Day 14, 1, 3 and 10 mg/kg, all time points over 24 hours): remained well above the BD2 BRD4 EC50
- time of peak (or plateau) plasma concentration ([1]; Day 14, all animals): approximately 2 hours
- platelet counts relative to vehicle ([1]; Day 15, after 14 days of 1, 3 or 10 mg/kg): no appreciable difference in platelet counts
- Mean Platelet Count ([1]; 1 mg/kg): 260750 µL⁻¹
- Mean Platelet Count ([1]; 3 mg/kg): 241000 µL⁻¹
- Mean Platelet Count ([1]; 10 mg/kg): 293000 µL⁻¹
- concentration at 0.5 h ([1]; 1 mg/kg, Female): 27.8 ng/mL
- concentration at 1 h ([1]; 1 mg/kg, Female): 57.9 ng/mL
- concentration at 2 h ([1]; 1 mg/kg, Female): 70.1 ng/mL
- concentration at 4 h ([1]; 1 mg/kg, Female): 55.9 ng/mL
- concentration at 8 h ([1]; 1 mg/kg, Female): 25.7 ng/mL
- concentration at 24 h ([1]; 1 mg/kg, Female): 10.3 ng/mL
- concentration at 0.5 h ([1]; 1 mg/kg, Male): 31.6 ng/mL
- concentration at 1 h ([1]; 1 mg/kg, Male): 56.7 ng/mL
- concentration at 2 h ([1]; 1 mg/kg, Male): 60.8 ng/mL
- concentration at 4 h ([1]; 1 mg/kg, Male): 44.8 ng/mL
- concentration at 8 h ([1]; 1 mg/kg, Male): 24.5 ng/mL
- concentration at 24 h ([1]; 1 mg/kg, Male): 25.1 ng/mL
- concentration at 0.5 h ([1]; 3 mg/kg, Female): 152 ng/mL
- concentration at 1 h ([1]; 3 mg/kg, Female): 324 ng/mL
- concentration at 2 h ([1]; 3 mg/kg, Female): 320 ng/mL
- concentration at 4 h ([1]; 3 mg/kg, Female): 230 ng/mL
- concentration at 8 h ([1]; 3 mg/kg, Female): 87.5 ng/mL
- concentration at 24 h ([1]; 3 mg/kg, Female): 14.2 ng/mL
- concentration at 0.5 h ([1]; 3 mg/kg, Male): 98.3 ng/mL
- concentration at 1 h ([1]; 3 mg/kg, Male): 201 ng/mL
- concentration at 2 h ([1]; 3 mg/kg, Male): 265 ng/mL
- concentration at 4 h ([1]; 3 mg/kg, Male): 245 ng/mL
- concentration at 8 h ([1]; 3 mg/kg, Male): 165 ng/mL
- concentration at 24 h ([1]; 3 mg/kg, Male): 33 ng/mL
- concentration at 0.5 h ([1]; 10 mg/kg, Female): 1130 ng/mL
- concentration at 1 h ([1]; 10 mg/kg, Female): 1630 ng/mL
- concentration at 2 h ([1]; 10 mg/kg, Female): 1680 ng/mL
- concentration at 4 h ([1]; 10 mg/kg, Female): 1070 ng/mL
- concentration at 8 h ([1]; 10 mg/kg, Female): 342 ng/mL
- concentration at 24 h ([1]; 10 mg/kg, Female): 61.6 ng/mL
- concentration at 0.5 h ([1]; 10 mg/kg, Male): 1010 ng/mL
- concentration at 1 h ([1]; 10 mg/kg, Male): 1450 ng/mL
- concentration at 2 h ([1]; 10 mg/kg, Male): 1490 ng/mL
- concentration at 4 h ([1]; 10 mg/kg, Male): 1350 ng/mL
- concentration at 8 h ([1]; 10 mg/kg, Male): 646 ng/mL
- concentration at 24 h ([1]; 10 mg/kg, Male): 145 ng/mL
- concentration at 0.5 h [1, 3]: 29.7 ng/mL
- concentration at 1 h [1, 3]: 57.3 ng/mL
- concentration at 2 h [1, 3]: 65.5 ng/mL
- concentration at 4 h [1, 3]: 50.4 ng/mL
- concentration at 8 h [1, 3]: 25.1 ng/mL
- concentration at 24 h [1, 3]: 17.7 ng/mL
- concentration at 0.5 h [1, 4]: 125 ng/mL
- concentration at 1 h [1, 4]: 262 ng/mL
- concentration at 2 h [1, 4]: 292 ng/mL
- concentration at 4 h [1, 4]: 238 ng/mL
- concentration at 8 h [1, 4]: 126 ng/mL
- concentration at 24 h [1, 4]: 23.6 ng/mL
- concentration at 0.5 h [1, 5]: 1070 ng/mL
- concentration at 1 h [1, 5]: 1540 ng/mL
- concentration at 2 h [1, 5]: 1580 ng/mL
- concentration at 4 h [1, 5]: 1210 ng/mL
- concentration at 8 h [1, 5]: 494 ng/mL
- concentration at 24 h [1, 5]: 103 ng/mL
- Clinical observations assessed daily [2]: soft stools on just one study day
- Mean Kidney Weight (lupus; Compound A 1 mg/kg PO QD): 245 mg
- Mean Spleen Weight (lupus; Compound A 1 mg/kg PO QD): 241 mg
- Mean Kidney Weight (lupus; Compound A 3 mg/kg PO QD): 245 mg
- Mean Spleen Weight (lupus; Compound A 3 mg/kg PO QD): 361 mg
- Mean Kidney Weight (lupus; Compound A 10 mg/kg PO QD): 225 mg
- Mean Spleen Weight (lupus; Compound A 10 mg/kg PO QD): 170 mg
- Kidney weights relative to controls (lupus; Compound A (10 mg/kg) and cyclophosphamide groups): slightly decreased kidney weights
- Spleen weights relative to vehicle controls (lupus; Compound A (all tested doses) and cyclophosphamide): decreased spleen weights

Reference: patent US20260217701A1, “SELECTIVE BET INHIBITORS AND USES THEREOF” (Tay Therapeutics Limited, priority 2022, published 2026)
